One series addresses T1, VEGFR-2 (KDR) (Homo sapiens, UniProt P35968).
T1 construct: purchased BPS Bioscience 40301
Nature of the series: In vitro VEGFR-2 tyrosine kinase activity (Kinase-Glo Plus luminescence, BPS Bioscience). The series is classed as biochemical. Particulars: for inhibition at 10 µM: single dose concentration of 10 μM; for IC50: 5 concentrations 1 nM - 10 μM. A general note: Kinase-Glo reads ATP consumption through a luciferase reaction.

The target of the next series is c-Src (Homo sapiens, UniProt P12931). The series can be described thus: In vitro multiple-kinase inhibition assay, c-Src. Type of series: biochemical. As for the experimental part:
(§1) In vitro multiple-kinase inhibition assay. […] Kinase enzymatic activity of the tested compounds was evaluated against a reference kinase inhibitor at 10 μM (Table 2).
(§2) The multiple kinases activity at single dose concentration of 10 μM was performed, c-Kit, c-Raf, c-Src, RET served as the enzyme source. […] Kinase-Glo Plus Luminescence kinase assay kit (Promega#V3772), ADP-Glo Luminescence assay kit was used for c-kit assay (Supplementary). […]
(§3) mM MgCl2, 0.1 mg/ml BSA, 1 mM DTT, 10 µM ATP, Kinase substrate and VEGFR. After the enzymatic reaction, 50 µl of Kinase-Glo Plus Luminescence kinase assay solution (Promega) was added to each reaction and incubate the plate for 5 minutes at room temperature.
(§4) Luminescence signal was measured using a BioTek Synergy 2 microplate reader. VEGFR activity assays were performed in duplicate at each concentration.
(§5) The luminescence data were analyzed using the computer software, Graphpad Prism. The difference between luminescence intensities in the absence of VEGFR (Lut) and in the presence of VEGFR (Luc) was defined as 100 % activity (Lut – Luc). Using luminescence signal (Lu) in the presence of the compound, % activity was calculated as:
(§6) % activity = {(Lut - Lu)/(Lut - Luc)}×100%, where Lu= the luminescence intensity in the […]
(§7) IC50 determination for inhibitor against VEGFR was calculated. The values of % activity versus a series of compound concentrations (1 nM - 10 nM - 100 nM - 1 µM - 10 µM) were then […]
(§8) or Hill coefficient. The IC50 value was determined by the concentration causing a half-maximal […]
(§9) In vitro multiple-kinase inhibition assay
(§10) Luminescence signal was measured using a BioTek Synergy 2 microplate reader […]
(§11) The luminescence data were analyzed using the same computer software and the same protocol

For series [1], the system named is HUVEC umbilical vein endothelial cells. The series can be described thus: In vitro HUVEC anti-proliferative assay (alamarBlue). To be noted: Homo sapiens, HUVEC proliferation at 10 μM, 72 hours; for activity at 10 µM: read-out: % Cell growth; for inhibition at 10 µM: read-out: % Cell inhibition. The series is classed as cell-based.
A further series addresses RET (Homo sapiens, UniProt P07949). Nature of the series: In vitro multiple-kinase inhibition assay, RET. Type of series: biochemical. On the procedure: as §1, §2, §3, §4, §5, §6, §7, §8, §9, §10, §11
A further series concerns the target c-Raf (Homo sapiens, UniProt P04049). Nature of the series: In vitro multiple-kinase inhibition assay, c-Raf. Type of series: biochemical. As for the experimental part:
as §1, §2, §3, §4, §5, §6, §7, §8, §9, §10, §11

Another series deals with c-Kit (Homo sapiens, UniProt P10721). Nature of the series: In vitro multiple-kinase inhibition assay, c-Kit (ADP-Glo). Type of series: biochemical. On the procedure:
as §1, §2, §3, §4, §5, §6, §7, §8, §9
The assay was performed using the same conditions for VEGFR-2 activity assay (section 5.2.1.1). The assays for c-Kit was an exception, it was performed using ADP-Glo Kinase assay reagents (Promega). It measures kinase activity by quantitating the ADP amount produced from the enzymatic reaction. The luminescent signal from the assay is correlated with the amount of ADP present and is directly correlated with the amount of kinase activity. Other conditions are same to the previous section except the final reaction volume was reduced to 25 µl. After the 40 min kinase reaction at 30 °C, 25 µl of ADP-Glo reagent was added and incubated for 45 min at room temperature followed by another 50 min incubation with 50 µl of Kinase detection mixture.
as §10, §11
On the technique in general: ADP-Glo first removes unused ATP, then detects ADP through luciferase.

The subject of series [2] is Ehrlich ascites carcinoma (EAC) solid tumor. The series can be described thus: In vivo anticancer activity, EAC solid tumor murine model. On the set-up: species or system Swiss albino mice. To be noted: 10 mg/kg/day po, once daily for 8 consecutive days. As for the experimental part:
Animals. Female Swiss albino mice weighing 15–20 g were used in the present study. They were obtained from the animal breeding laboratory, National Cancer Institute (NCI), Cairo University, Egypt. Animals were kept in our animal facility, faculty of pharmacy, Ain Shams university at 25 ± 2 °C and a relative humidity of 40–45% with alternative day and night cycles of 12 h each. Animals had free access to pellet food and water ad libitum. Standard diet pellets (El-Nasr, Abu Zaabal, Egypt) contained not less than 20% protein, 5% fiber, 3.5% fat, 6.5% ash and a vitamin mixture. Animal care and experiments were conducted in accordance with the protocols approved by the Ethics Research Committee, Faculty of Pharmacy, Ain Shams University, following the Institutional Animal Care and Use Committee guidelines.
Tumor cells preparation and transplantation. Ehrlich ascites carcinoma (EAC) cells were obtained from NCI, Cairo University, Egypt. EAC cells were maintained in the ascitic form in Swiss albino mice by intraperitoneal transplantation of each mouse every 10 days. Ascitic fluid was drawn from tumor-bearing mice at the log phase (7–8th day of tumor bearing) of the tumor cells. The freshly drawn fluid was diluted with ice-cold sterile isotonic saline. 200 μl tumor cell suspension containing 2 × 10^6 tumor cells were then subcutaneously injected in each mouse.
Experimental design. Swiss albino mice were divided into six groups (n = 6 per group).
Evaluation of effectiveness. Tumor growth curve was drawn according to the change in tumor volume from first day of treatment (day 0) till day 7. Longest and shortest diameters of the solid tumor were monitored using a digital vernier caliper. Tumor volume (TV) of each animal was calculated using the following formula: […]
Tumor growth inhibition (TGI) was calculated as follows.
RTV = (Tumor volume at the day of measurement)/Tumor volume at the initial day.
Histopathological Examination
thickness by slidge microtome.
graded ethanol solutions.

A value given as a limit tells only on which side of the number the result lay.

T1 sequence (P35968 20-1356): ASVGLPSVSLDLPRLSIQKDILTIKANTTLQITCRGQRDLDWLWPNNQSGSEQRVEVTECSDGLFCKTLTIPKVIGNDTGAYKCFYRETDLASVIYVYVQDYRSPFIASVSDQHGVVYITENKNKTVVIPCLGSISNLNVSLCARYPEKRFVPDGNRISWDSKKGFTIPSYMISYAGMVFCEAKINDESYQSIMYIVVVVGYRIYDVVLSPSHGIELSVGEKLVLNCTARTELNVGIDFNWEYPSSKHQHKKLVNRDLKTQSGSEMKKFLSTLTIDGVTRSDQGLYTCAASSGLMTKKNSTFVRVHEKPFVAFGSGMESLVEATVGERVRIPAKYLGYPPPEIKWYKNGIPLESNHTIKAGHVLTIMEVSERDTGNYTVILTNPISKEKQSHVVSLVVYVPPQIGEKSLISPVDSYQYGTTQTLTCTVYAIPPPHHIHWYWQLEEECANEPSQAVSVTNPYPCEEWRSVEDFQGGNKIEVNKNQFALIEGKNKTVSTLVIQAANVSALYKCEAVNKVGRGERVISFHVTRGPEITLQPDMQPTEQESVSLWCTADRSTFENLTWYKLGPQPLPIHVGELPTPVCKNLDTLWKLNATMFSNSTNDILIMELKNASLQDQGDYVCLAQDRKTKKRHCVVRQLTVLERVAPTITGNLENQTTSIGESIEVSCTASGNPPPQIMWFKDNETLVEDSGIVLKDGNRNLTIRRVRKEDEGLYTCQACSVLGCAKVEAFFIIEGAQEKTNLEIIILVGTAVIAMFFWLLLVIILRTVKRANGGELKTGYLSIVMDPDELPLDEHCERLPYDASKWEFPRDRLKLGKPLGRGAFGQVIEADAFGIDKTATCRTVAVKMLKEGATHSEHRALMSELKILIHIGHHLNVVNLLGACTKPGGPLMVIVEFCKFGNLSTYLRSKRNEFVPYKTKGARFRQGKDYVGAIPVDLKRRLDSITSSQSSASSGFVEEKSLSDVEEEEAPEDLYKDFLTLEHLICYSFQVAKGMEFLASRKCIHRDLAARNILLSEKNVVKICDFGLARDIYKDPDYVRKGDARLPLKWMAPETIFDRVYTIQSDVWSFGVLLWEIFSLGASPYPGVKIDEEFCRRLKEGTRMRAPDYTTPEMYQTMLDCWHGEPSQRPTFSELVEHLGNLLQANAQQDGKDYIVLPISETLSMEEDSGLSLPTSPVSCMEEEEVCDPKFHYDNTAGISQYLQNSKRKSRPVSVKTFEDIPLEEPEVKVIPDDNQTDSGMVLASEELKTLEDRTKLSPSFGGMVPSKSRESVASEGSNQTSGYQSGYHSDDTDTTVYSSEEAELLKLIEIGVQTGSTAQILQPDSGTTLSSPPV
c-Src, sequence (P12931 whole entry, species assumed): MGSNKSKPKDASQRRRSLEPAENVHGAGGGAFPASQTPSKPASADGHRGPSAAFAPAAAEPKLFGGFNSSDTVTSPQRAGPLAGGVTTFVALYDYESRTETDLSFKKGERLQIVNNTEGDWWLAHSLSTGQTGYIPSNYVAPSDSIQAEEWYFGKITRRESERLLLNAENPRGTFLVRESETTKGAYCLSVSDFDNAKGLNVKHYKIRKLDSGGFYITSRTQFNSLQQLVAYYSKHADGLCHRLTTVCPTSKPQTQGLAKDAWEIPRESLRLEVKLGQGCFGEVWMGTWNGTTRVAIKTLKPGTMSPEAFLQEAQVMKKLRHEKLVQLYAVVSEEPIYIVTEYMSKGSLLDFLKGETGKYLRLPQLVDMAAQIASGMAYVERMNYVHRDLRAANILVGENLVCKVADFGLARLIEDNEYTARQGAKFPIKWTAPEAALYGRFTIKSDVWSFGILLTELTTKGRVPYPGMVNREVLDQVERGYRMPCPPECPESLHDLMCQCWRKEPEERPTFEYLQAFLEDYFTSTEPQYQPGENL
c-Raf, sequence (P04049 whole entry, species assumed): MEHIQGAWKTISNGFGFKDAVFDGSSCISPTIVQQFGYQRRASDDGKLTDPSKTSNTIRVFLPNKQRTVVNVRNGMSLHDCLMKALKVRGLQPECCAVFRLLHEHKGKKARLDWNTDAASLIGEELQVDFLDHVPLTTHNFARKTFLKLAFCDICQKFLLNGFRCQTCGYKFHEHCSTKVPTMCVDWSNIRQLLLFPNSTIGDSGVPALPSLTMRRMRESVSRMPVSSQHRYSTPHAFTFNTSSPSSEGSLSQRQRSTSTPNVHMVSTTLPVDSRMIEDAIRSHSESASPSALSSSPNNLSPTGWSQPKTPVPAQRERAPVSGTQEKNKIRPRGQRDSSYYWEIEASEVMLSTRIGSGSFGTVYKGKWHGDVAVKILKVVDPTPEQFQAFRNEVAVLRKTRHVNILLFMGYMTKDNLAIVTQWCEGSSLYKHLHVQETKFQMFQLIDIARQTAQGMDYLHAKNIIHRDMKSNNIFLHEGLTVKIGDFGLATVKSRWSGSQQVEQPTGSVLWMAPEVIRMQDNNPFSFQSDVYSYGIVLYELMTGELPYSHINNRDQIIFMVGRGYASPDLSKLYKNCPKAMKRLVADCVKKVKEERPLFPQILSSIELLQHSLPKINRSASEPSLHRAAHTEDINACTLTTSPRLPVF
c-Kit, sequence (P10721 26-976): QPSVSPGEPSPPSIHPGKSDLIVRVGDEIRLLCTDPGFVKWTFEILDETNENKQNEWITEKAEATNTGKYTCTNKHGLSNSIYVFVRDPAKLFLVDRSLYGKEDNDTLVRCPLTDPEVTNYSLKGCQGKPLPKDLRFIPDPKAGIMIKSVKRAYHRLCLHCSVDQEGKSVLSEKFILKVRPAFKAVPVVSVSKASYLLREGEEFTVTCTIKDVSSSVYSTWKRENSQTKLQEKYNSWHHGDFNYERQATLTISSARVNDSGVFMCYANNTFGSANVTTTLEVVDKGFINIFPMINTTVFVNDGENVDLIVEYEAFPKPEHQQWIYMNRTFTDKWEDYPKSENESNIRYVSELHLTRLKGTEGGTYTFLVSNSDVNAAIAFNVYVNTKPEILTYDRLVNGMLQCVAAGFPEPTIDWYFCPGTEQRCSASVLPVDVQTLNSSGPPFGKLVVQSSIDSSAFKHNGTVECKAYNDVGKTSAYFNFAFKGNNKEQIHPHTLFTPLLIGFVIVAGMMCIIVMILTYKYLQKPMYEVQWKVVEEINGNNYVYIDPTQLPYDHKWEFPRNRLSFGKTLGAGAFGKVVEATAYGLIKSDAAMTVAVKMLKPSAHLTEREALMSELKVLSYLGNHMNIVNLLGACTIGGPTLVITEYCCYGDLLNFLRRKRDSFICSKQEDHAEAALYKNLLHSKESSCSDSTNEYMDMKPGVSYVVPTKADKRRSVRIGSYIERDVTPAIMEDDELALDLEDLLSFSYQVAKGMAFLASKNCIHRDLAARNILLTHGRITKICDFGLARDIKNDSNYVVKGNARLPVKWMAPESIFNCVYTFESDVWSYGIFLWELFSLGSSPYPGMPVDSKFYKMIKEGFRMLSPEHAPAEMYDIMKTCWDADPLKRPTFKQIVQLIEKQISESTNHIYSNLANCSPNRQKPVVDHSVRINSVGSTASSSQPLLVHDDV
RET, sequence (P07949 29-1114, species assumed): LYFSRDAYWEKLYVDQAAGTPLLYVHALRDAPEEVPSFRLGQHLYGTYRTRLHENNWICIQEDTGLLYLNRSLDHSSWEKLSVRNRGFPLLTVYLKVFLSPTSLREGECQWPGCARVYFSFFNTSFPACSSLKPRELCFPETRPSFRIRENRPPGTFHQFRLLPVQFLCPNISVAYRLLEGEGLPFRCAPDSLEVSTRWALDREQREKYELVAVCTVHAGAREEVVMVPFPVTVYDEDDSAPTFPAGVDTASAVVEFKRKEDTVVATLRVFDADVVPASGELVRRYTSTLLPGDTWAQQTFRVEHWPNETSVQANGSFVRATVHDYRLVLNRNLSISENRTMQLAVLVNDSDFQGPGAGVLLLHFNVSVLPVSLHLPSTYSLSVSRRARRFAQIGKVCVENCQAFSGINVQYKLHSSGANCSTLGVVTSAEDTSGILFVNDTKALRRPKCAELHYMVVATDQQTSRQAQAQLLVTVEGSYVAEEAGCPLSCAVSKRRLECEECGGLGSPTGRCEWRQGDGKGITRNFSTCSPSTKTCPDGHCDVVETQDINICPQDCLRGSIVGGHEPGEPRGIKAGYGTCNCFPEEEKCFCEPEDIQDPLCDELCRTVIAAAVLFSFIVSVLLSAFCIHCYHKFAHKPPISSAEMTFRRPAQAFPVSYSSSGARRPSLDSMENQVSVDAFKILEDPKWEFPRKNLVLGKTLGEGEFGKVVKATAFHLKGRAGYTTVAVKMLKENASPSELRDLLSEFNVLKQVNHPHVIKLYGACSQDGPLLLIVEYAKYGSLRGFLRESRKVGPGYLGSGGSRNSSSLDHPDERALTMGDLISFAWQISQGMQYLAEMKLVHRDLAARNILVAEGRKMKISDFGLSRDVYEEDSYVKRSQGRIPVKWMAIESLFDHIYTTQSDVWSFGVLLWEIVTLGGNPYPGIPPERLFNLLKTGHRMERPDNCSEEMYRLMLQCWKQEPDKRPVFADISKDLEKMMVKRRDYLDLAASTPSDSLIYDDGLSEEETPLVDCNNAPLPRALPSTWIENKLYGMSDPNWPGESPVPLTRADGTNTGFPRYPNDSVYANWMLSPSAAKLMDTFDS

For the compound `CCOC(=O)c1c(C)oc2ncnc(Nc3ccc(NC(=O)Nc4cccc(OC)c4)cc3)c12` [Compound 15c], the melting point (as a rule, the temperature, or range, at which the solid turns liquid) was 220 to 222 °C. In addition, the inhibition – broadly, the percentage by which the read-out fell short of the control – at 10 µM at VEGFR-2 (KDR) is 62%.
As for `CCOC(=O)c1c(C)oc2ncnc(Nc3ccc(C(=O)Nc4ccc(C)cc4)cc3)c12` [Compound 14c], the melting point was 235 to 238 °C. Further, the inhibition at 10 µM on VEGFR-2 (KDR) was determined as 14%.
For the compound `CCOC(=O)c1c(C)oc2ncnc(Nc3ccc(NC(=O)Nc4ccc(Cl)cc4)cc3)c12` [Compound 15e], the melting point lay in the range of 262 to 265 °C. For the same compound, the inhibition at 10 µM on VEGFR-2 (KDR) is 14%.
For `CCOC(=O)c1c(C)oc2ncnc(Nc3ccc(C(=O)Nc4ccc(Cl)c(C(F)(F)F)c4)cc3)c12` [Compound 14d], in that order: 238 to 240 °C and 14%.
As to `O=C(Nc1ccc(Cl)cc1)Nc1ccc(Nc2ncnc3sc4c(c23)CCCC4)cc1` [Compound 20e], the melting point was more than 300 °C. Also, the inhibition at 10 µM at VEGFR-2 (KDR) was 32%.
Consider `CCOC(=O)c1c(C)oc2ncnc(Nc3ccc(NC(=O)Nc4ccccc4)cc3)c12` [Compound 15a], for which, at VEGFR-2 (KDR), the inhibition at 10 µM was 19%.
Compound `Cc1ccc(NC(=O)Nc2ccc(Nc3ncnc4sc5c(c34)CCCC5)cc2)cc1Cl` [Compound 20f] came in with a melting point of more than 300 °C. The inhibition at 10 µM on VEGFR-2 (KDR) is more than 70%.
The like results for `Cc1cccc(NC(=O)Nc2ccc(Nc3ncnc4sc5c(c34)CCCC5)cc2)c1` [Compound 20b] were, in that order, more than 250 °C and 47%.
The compound `CCOC(=O)c1c(C)oc2ncnc(Nc3ccc(NC(=O)c4ccc(Cl)cc4)cc3)c12` [Compound 13b] registered a melting point of more than 250 °C. Further, the inhibition at 10 µM on VEGFR-2 (KDR) was determined as 15%.
Take `CCOC(=O)c1c(C)oc2ncnc(Oc3ccc(NC(=O)Nc4ccc(C)c(Cl)c4)cc3)c12` [Compound 16e]: the inhibition at 10 µM at c-Src was 1%; in series [1], 11.1%; at RET, 84%; at c-Raf, 53%; at VEGFR-2 (KDR) it was more than 70%; on c-Kit, 72%. In addition, the activity at 10 µM in series [1] came to 88.9%. In addition, at VEGFR-2 (KDR), the IC50 (commonly the concentration needed to halve the response being measured) was 122 nM.
Compound `CCOC(=O)c1c(C)oc2ncnc(Oc3ccc(NC(=O)Nc4cccc(C)c4)cc3)c12` [Compound 16b] returned a melting point of 116 to 119 °C. Besides, in series [1], the activity at 10 µM came to 73.3% and the inhibition at 10 µM was 26.6%. For the same compound, at VEGFR-2 (KDR), the IC50 turned out to be 1000 nM and the inhibition at 10 µM was more than 70%.
Compound `CCOC(=O)c1c(C)oc2ncnc(Nc3ccc(NC(=O)Nc4cccc(Br)c4)cc3)c12` [Compound 15h] showed a melting point of 224 to 228 °C. Further, the inhibition at 10 µM at VEGFR-2 (KDR) turned out to be 45%.
Take `CN[C@@H]1C[C@H]2O[C@@](C)([C@@H]1OC)n1c3ccccc3c3c4c(c5c6ccccc6n2c5c31)C(=O)NC4` [Staurosporine, reference compound]: the inhibition at 1 µM at c-Src (read-out: Inhibition %, c-Src, reference inhibitor) was determined as 98%.
`CC(=O)c1cccc(NC(=O)Nc2ccc(Nc3ncnc4sc5c(c34)CCCC5)cc2)c1` [Compound 20g] showed a melting point of 265 to 269 °C. In series [1], the activity at 10 µM stood at 29.2% and the inhibition at 10 µM was 70.8%. At VEGFR-2 (KDR), the IC50 is 1500 nM and the inhibition at 10 µM was more than 70%.
For the compound `CCOC(=O)c1c(C)oc2ncnc(Oc3ccc(NC(=O)Nc4cccc(OC)c4)cc3)c12` [Compound 16c], in series [1], the activity at 10 µM is 32.1% and the inhibition at 10 µM worked out at 67.9%. Moreover, at VEGFR-2 (KDR), the IC50 is 551 nM.
Regarding `CCOC(=O)c1c(C)oc2ncnc(Oc3ccc(NC(=O)Nc4ccc(Cl)cc4)cc3)c12` [Compound 16d], the melting point is 215 to 219 °C. For the same compound, the inhibition at 10 µM at VEGFR-2 (KDR) turned out to be 40%.
For `CCOC(=O)c1c(C)oc2ncnc(Nc3ccc(NC(=O)Nc4cccc(C(C)=O)c4)cc3)c12` [Compound 15g], in that order: 240 to 244 °C and more than 70%.
`CCOC(=O)c1c(C)oc2ncnc(Nc3ccc(NC(=O)Nc4cccc(C)c4)cc3)c12` [Compound 15b] had a melting point of more than 250 °C. Further, in series [1], the activity at 10 µM worked out at 0.5% and the inhibition at 10 µM was 99.5%. Also, at VEGFR-2 (KDR), the IC50 stood at 946 nM.
For `CCOC(=O)c1c(C)oc2ncnc(Nc3ccc(NC(=O)c4cccc(Cl)c4)cc3)c12` [Compound 13a], the melting point was in the range of 232 to 236 °C. Moreover, the inhibition at 10 µM at VEGFR-2 (KDR) amounted to 8%.
`CCOC(=O)c1c(C)oc2ncnc(Oc3ccc(NC(=O)Nc4ccccc4)cc3)c12` [Compound 16a] gave a melting point of 183 to 185 °C. Moreover, at VEGFR-2 (KDR), the inhibition at 10 µM was 27%.
Compound `CCOC(=O)c1c(C)oc2ncnc(Nc3ccc(NC(=O)Nc4ccc(C)c(Cl)c4)cc3)c12` [Compound 15f] registered a melting point of 254 to 256 °C. In addition, in series [1], the activity at 10 µM was found to be 97.7% and the inhibition at 10 µM turned out to be 2.32%. On VEGFR-2 (KDR), the IC50 is 2100 nM.
As to `CNC(=O)c1cc(Oc2ccc(NC(=O)Nc3ccc(Cl)c(C(F)(F)F)c3)cc2)ccn1.Cc1ccc(S(=O)(=O)O)cc1` [Sorafenib p-toluenesulfonate, sorafenib p-toluenesulfonate, reference compound], the “TGI (%)” value in series [2] was found to be 80.8%.
